Test results reported in US20040122033A1, “Combination therapy for the treatment of obesity” (priority 2002, published 2004).
Where two headings read alike, the source gives them in different places.

Legend:
[1] = system: wild type, NPY KO mice, and AGRP-NPY double KO mice; test: CB-1 inverse agonist - NPY knock out mouse study (overnight food intake); assay type: in vivo; settings: 3 mg/kg orally
Procedure: AM25 1 was given to wild type, NPY KO Mice, and AGRP-NPY double KO mice orally at 3 mg/kg. Overnight food intake was measured.

[2] = system: wild type and MCH1R KO mice; test: CB-1 inverse agonist - MCH1R knock out mouse study (2 hour and overnight food intake); assay type: in vivo; settings: 5 mg/kg orally
Procedure: AM251 was given to wild type and MCH1R KO mice orally at 5 mg/kg. Two hour and overnight food intake were measured.

[3] = system: Wild type or MCH1R KO mice; settings: for 2 hour food intake: 1 μg MT-II icv at onset of dark cycle, vs aCSF vehicle
Procedure: Wild type or MCH1R KO mice were implanted with intracerebroventricular (icv) cannulae for icv administration of compounds. One microgram of MT-II was given by icv injection per animal at the onset of dark cycle and food intake was measured 2 hours post-injection. Overnight body weight differences were also measured. Artificial cerebrospinal fluid (aCSF) was used as a vehicle to dissolve MT-II.

[4] = in vivo; cited from earlier work

Compound: Cc1c(C(=O)NN2CCCCC2)nn(-c2ccc(Cl)cc2Cl)c1-c1ccc(I)cc1 [AM251]
- overnight food intake ([1]; AGRP-NPY double KO mice): significantly inhibits
- overnight food intake ([1]; NPY KO mice): significantly inhibits
- overnight food intake ([1]; wild type mice): significantly inhibits
- 2 hour food intake ([2]; MCH1R KO mice): significantly inhibited
- overnight food intake ([2]; MCH1R KO mice, 5 mg/kg): inhibits
- overnight food intake ([2]; MCH1R KO mice, listed as AM 251, 5 mg/kg): significantly inhibited
- 2 hour food intake ([2]; wild type mice): significantly inhibited
- overnight food intake ([2]; wild type mice, 5 mg/kg): inhibits
- overnight food intake ([2]; wild type mice, listed as AM 251, 5 mg/kg): significantly inhibited

Compound: Melanotan-II [MT-II]
- overnight body weight compared to vehicle treated mice ([3]; MCH1R KO mice, 1 μg MT-II icv): reduced body weight
- 2 hour food intake ([3]; MCH1R KO mice): significantly inhibited
- decrease of overnight food intake ([3]; MCH-1R knock out mice, 1 μg MT-II icv, overnight): greater than 80%
- decrease in food intake, MCH-1R knock out mice versus wild type mice ([3]; MT-II treated MCH-1R knock out mice compared with MT-II treated wild type mice, FIG. 1): significantly greater decrease in food intake
- overnight decrease in bodyweight, MCH-1R knock out mice versus wild type mice ([3]; MT-II treated MCH-1R knock out mice compared with MT-II treated wild type mice, FIG. 2): greater overnight decrease in bodyweight
- overnight body weight compared to vehicle treated mice ([3]; wild type mice, 1 μg MT-II icv): reduced body weight
- 2 hour food intake ([3]; wild type mice): significantly inhibited

Compound: CC1(C)O[C@@H]2[C@@H](CO[C@@]3(COS(N)(=O)=O)OC(C)(C)O[C@@H]23)O1 [Topiramate]
- weight loss [4]: increase weight loss
